This assay has as its system MV-4-11 cells. Description: Gene expression microarray analysis (Affymetrix PrimeView) and GSEA. Format: cell-based, human. More on the design: RFU PODN (11730768_x_at) / Fold change /veh PODN (11730768_x_at) / RFU LINC00158 (11744669_a_at) / Fold change /veh LINC00158 (11744669_a_at) / RFU DUSP10 (11751237_a_at) / Fold change /veh DUSP10 (11751237_a_at) / RFU ID3 (11757404_x_at) / Fold change /veh ID3 (11757404_x_at) / RFU PLEKHG5 (11737974_s_at) / Fold change /veh PLEKHG5 (11737974_s_at) / RFU LRRC4B (11730491_at) / Fold change /veh LRRC4B (11730491_at) / RFU GIMAP4 (11747438_a_at) / Fold change /veh GIMAP4 (11747438_a_at) / RFU KRT8 (11758183_x_at) / Fold change /veh KRT8 (11758183_x_at) / RFU CNN1 (11734310_a_at) / Fold change /veh CNN1 (11734310_a_at) / RFU VPS37D (11726825_at) / Fold change /veh VPS37D (11726825_at) / RFU C10orf10 (11716522_x_at) / Fold change /veh C10orf10 (11716522_x_at) / RFU KIR2DL2 /// KIR2DL4 /// KIR2DL5A /// KIR2DL5B /// KIR2DS1 /// KIR2DS2 /// KIR2DS3 /// KIR2DS4 /// KIR3DL3 /// KIR3DL3 /// KIR3DS1 (11738374_at) / Fold change /veh KIR2DL2 /// KIR2DL4 /// KIR2DL5A /// KIR2DL5B /// KIR2DS1 /// KIR2DS2 /// KIR2DS3 /// KIR2DS4 /// KIR3DL3 /// KIR3DL3 /// KIR3DS1 (11738374_at) / RFU C1QL1 (11718748_at) / Fold change /veh C1QL1 (11718748_at) / RFU TMPRSS4 (11747572_a_at) / Fold change /veh TMPRSS4 (11747572_a_at) / RFU HAMP (11756126_x_at) / Fold change /veh HAMP (11756126_x_at) / RFU RNFT2 (11725882_a_at) / Fold change /veh RNFT2 (11725882_a_at) / RFU NR4A2 (11747474_a_at) / Fold change /veh NR4A2 (11747474_a_at) / RFU ABCC12 (11746883_a_at) / Fold change /veh ABCC12 (11746883_a_at) / RFU TMEM136 (11760407_x_at) / Fold change /veh TMEM136 (11760407_x_at) / RFU CLDN22 /// WWC2 (11732394_at) / Fold change /veh CLDN22 /// WWC2 (11732394_at) / RFU HLA-DPB1 (11760878_x_at) / Fold change /veh HLA-DPB1 (11760878_x_at) / RFU SPINT1 (11716480_a_at) / Fold change /veh SPINT1 (11716480_a_at) / RFU GAP43 (11754022_s_at) / Fold change /veh GAP43 (11754022_s_at) / RFU A4GNT (11735810_at) / Fold change /veh A4GNT (11735810_at) / RFU PRB3 (11715151_x_at) / Fold change /veh PRB3 (11715151_x_at) / RFU TUBB4B (11761932_at) / Fold change /veh TUBB4B (11761932_at) / RFU CAPN14 (11732068_a_at) / Fold change /veh CAPN14 (11732068_a_at) / RFU TMCC2 (11721928_a_at) / Fold change /veh TMCC2 (11721928_a_at) / RFU IRGQ (11745062_a_at) / Fold change /veh IRGQ (11745062_a_at) / RFU FAM174B (11720279_a_at) / Fold change /veh FAM174B (11720279_a_at) / RFU TMPRSS4 (11748680_a_at) / Fold change /veh TMPRSS4 (11748680_a_at) / RFU FAM212B (11763350_a_at) / Fold change /veh FAM212B (11763350_a_at) / RFU PLEKHG5 (11743358_a_at) / Fold change /veh PLEKHG5 (11743358_a_at) / RFU ZSCAN30 (11745921_a_at) / Fold change /veh ZSCAN30 (11745921_a_at) / RFU CMKLR1 (11741424_a_at) / Fold change /veh CMKLR1 (11741424_a_at) / RFU LOC101060620 /// MAPK8IP1 (11723275_at) / Fold change /veh LOC101060620 /// MAPK8IP1 (11723275_at) / RFU SPTSSB (11747773_x_at) / Fold change /veh SPTSSB (11747773_x_at) / RFU PRSS12 (11739890_at) / Fold change /veh PRSS12 (11739890_at) / RFU BIN1 (11741810_x_at) / Fold change /veh BIN1 (11741810_x_at) / RFU WNT11 (11732464_a_at) / Fold change /veh WNT11 (11732464_a_at) / RFU C10orf10 (11716521_a_at) / Fold change /veh C10orf10 (11716521_a_at) / RFU C5orf56 (11738089_at) / Fold change /veh C5orf56 (11738089_at) / RFU CYB561 (11721691_x_at) / Fold change /veh CYB561 (11721691_x_at) / RFU ANKRD19P (11752326_a_at) / Fold change /veh ANKRD19P (11752326_a_at) / RFU OR2T12 /// OR2T33 /// OR2T8 (11738714_s_at) / Fold change /veh OR2T12 /// OR2T33 /// OR2T8 (11738714_s_at) / RFU VCAN (11748164_a_at) / Fold change /veh VCAN (11748164_a_at) / RFU JSRP1 (11732532_at) / Fold change /veh JSRP1 (11732532_at) / RFU KRTAP10-11 (11738290_x_at) / Fold change /veh KRTAP10-11 (11738290_x_at) / RFU MYO3A (11730013_a_at) / Fold change /veh MYO3A (11730013_a_at) / RFU EBF3 (11725865_a_at) / Fold change /veh EBF3 (11725865_a_at) / RFU CAMK2N1 (11719241_x_at) / Fold change /veh CAMK2N1 (11719241_x_at) / RFU C5orf56 (11738088_a_at) / Fold change /veh C5orf56 (11738088_a_at) / RFU OLFML3 (11715873_a_at) / Fold change /veh OLFML3 (11715873_a_at) / RFU LOC100653217 /// NTM (11731650_a_at) / Fold change /veh LOC100653217 /// NTM (11731650_a_at) / RFU MAPK11 (11762145_a_at) / Fold change /veh MAPK11 (11762145_a_at) / RFU FIZ1 (11724087_x_at) / Fold change /veh FIZ1 (11724087_x_at) / RFU OASL (11726364_x_at) / Fold change /veh OASL (11726364_x_at) / RFU SOX15 (11748057_x_at) / Fold change /veh SOX15 (11748057_x_at) / RFU CD79A (11719716_a_at) / Fold change /veh CD79A (11719716_a_at) / RFU HIST1H1D (11736915_at) / Fold change /veh HIST1H1D (11736915_at) / RFU CASKIN2 (11723855_a_at) / Fold change /veh CASKIN2 (11723855_a_at) / RFU LOC730098 (11760151_x_at) / Fold change /veh LOC730098 (11760151_x_at) / RFU OR4N2 (11742367_at) / Fold change /veh OR4N2 (11742367_at) / RFU PRRT2 (11749266_a_at) / Fold change /veh PRRT2 (11749266_a_at) / RFU SNX32 (11753110_a_at) / Fold change /veh SNX32 (11753110_a_at) / RFU CDHR5 (11726645_a_at) / Fold change /veh CDHR5 (11726645_a_at) / RFU RCAN1 (11760418_a_at) / Fold change /veh RCAN1 (11760418_a_at) / RFU FAM167A (11723789_a_at) / Fold change /veh FAM167A (11723789_a_at) / RFU FAM26E (11764081_at) / Fold change /veh FAM26E (11764081_at) / RFU ISYNA1 (11749810_s_at) / Fold change /veh ISYNA1 (11749810_s_at) / RFU ACY1 (11761880_at) / Fold change /veh ACY1 (11761880_at) / RFU 11764098_at / Fold change /veh 11764098_at / RFU SAMD14 (11745864_x_at) / Fold change /veh SAMD14 (11745864_x_at) / RFU NPB (11741838_a_at) / Fold change /veh NPB (11741838_a_at) / RFU TMPRSS6 (11731388_a_at) / Fold change /veh TMPRSS6 (11731388_a_at) / RFU KRTAP10-2 (11738614_at) / Fold change /veh KRTAP10-2 (11738614_at) / RFU ARHGAP8 /// PRR5-ARHGAP8 (11727945_x_at) / Fold change /veh ARHGAP8 /// PRR5-ARHGAP8 (11727945_x_at) / RFU KRTAP5-7 /// NADSYN1 (11734609_at) / Fold change /veh KRTAP5-7 /// NADSYN1 (11734609_at) / RFU RASL12 (11751679_a_at) / Fold change /veh RASL12 (11751679_a_at) / RFU CDKN2B (11736163_a_at) / Fold change /veh CDKN2B (11736163_a_at) / RFU PRF1 (11729649_at) / Fold change /veh PRF1 (11729649_at) / RFU, ZNF638 /// ZNF638-IT1 / Fold change vs veh, ZNF638 /// ZNF638-IT1 / RFU, PANK3 / Fold change vs veh, PANK3 / RFU, SH3YL1 / Fold change vs veh, SH3YL1 / RFU, ZEB2 / Fold change vs veh, ZEB2 / RFU, NRIP1 / Fold change vs veh, NRIP1 / RFU, PTTG1IP / Fold change vs veh, PTTG1IP / RFU, CAPN2 / Fold change vs veh, CAPN2 / RFU, MED14 / Fold change vs veh, MED14 / RFU, SNORA58 / Fold change vs veh, SNORA58 / RFU, C1orf63 / Fold change vs veh, C1orf63 / RFU, LRRFIP1 / Fold change vs veh, LRRFIP1 / RFU, NDUFAF7 / Fold change vs veh, NDUFAF7 / RFU, SLC12A2 / Fold change vs veh, SLC12A2 / RFU, IBTK / Fold change vs veh, IBTK / RFU, ESF1 / Fold change vs veh, ESF1 / Fold change vs veh, TMEM50B / RFU, TAOK1 / Fold change vs veh, TAOK1 / RFU, ACBD3 / Fold change vs veh, ACBD3 / RFU, TMA16 / Fold change vs veh, TMA16 / RFU, RWDD3 / Fold change vs veh, RWDD3 / RFU, BCAT1 / Fold change vs veh, BCAT1 / RFU, EDEM3 / Fold change vs veh, EDEM3 / RFU, TMEM33 / Fold change vs veh, TMEM33 / RFU, WDR75 / Fold change vs veh, WDR75 / RFU, AHCTF1 / Fold change vs veh, AHCTF1 / RFU, TFRC / Fold change vs veh, TFRC / RFU, ZDHHC17 / Fold change vs veh, ZDHHC17 / RFU, NOM1 / Fold change vs veh, NOM1 / RFU, ARL8B / Fold change vs veh, ARL8B / RFU, ZBTB11 / Fold change vs veh, ZBTB11 / RFU, TAMM41 / Fold change vs veh, TAMM41 / RFU, KIAA1704 /// LOC100996395 / Fold change vs veh, KIAA1704 /// LOC100996395 / RFU, ING1 / Fold change vs veh, ING1 / RFU, TRMT61B / Fold change vs veh, TRMT61B / RFU, FUBP3 / Fold change vs veh, FUBP3 / RFU, TP53 / Fold change vs veh, TP53 / RFU, TNKS2 / Fold change vs veh, TNKS2 / RFU, ZFP14 / Fold change vs veh, ZFP14 / RFU, ACTR2 / Fold change vs veh, ACTR2 / RFU, PPP3R1 / Fold change vs veh, PPP3R1 / RFU, PIK3R1 / Fold change vs veh, PIK3R1 / RFU, HNRNPA1 / Fold change vs veh, HNRNPA1 / RFU, RNF170 / Fold change vs veh, RNF170 / RFU, ZNF28 / Fold change vs veh, ZNF28 / RFU, RNGTT / Fold change vs veh, RNGTT / RFU, OGT / Fold change vs veh, OGT / RFU, BRD1 / Fold change vs veh, BRD1 / RFU, MARS / Fold change vs veh, MARS / RFU, ZNF655 / Fold change vs veh, ZNF655 / RFU, FAHD1 / Fold change vs veh, FAHD1 / RFU, BDP1 / Fold change vs veh, BDP1 / RFU, LRRCC1 / Fold change vs veh, LRRCC1 / RFU, ARID1A / Fold change vs veh, ARID1A / RFU, ZNF146 / Fold change vs veh, ZNF146 / RFU, ZNF330 / Fold change vs veh, ZNF330 / RFU, GPN3 / Fold change vs veh, GPN3 / RFU, C9orf123 / Fold change vs veh, C9orf123 / RFU, N4BP2L2 / Fold change vs veh, N4BP2L2 / RFU, ARFIP1 / Fold change vs veh, ARFIP1 / RFU, FAM179B / Fold change vs veh, FAM179B / RFU, BCL10 / Fold change vs veh, BCL10 / RFU, UHRF1BP1L / Fold change vs veh, UHRF1BP1L / RFU, BET1 / Fold change vs veh, BET1 / RFU, CNOT2 / Fold change vs veh, CNOT2 / RFU, ZNF268 / Fold change vs veh, ZNF268 / Fold change vs veh, ZNF507 / RFU, DGCR2 / Fold change vs veh, DGCR2 / RFU, WDSUB1 / Fold change vs veh, WDSUB1 / Fold change vs veh, HSP90B1 /// MIR3652 / RFU, ADSS / Fold change vs veh, ADSS / RFU, GK / Fold change vs veh, GK / RFU, ZNF148 / Fold change vs veh, ZNF148 / RFU, TAF9 / Fold change vs veh, TAF9 / RFU, SLC1A5 / Fold change vs veh, SLC1A5 / RFU, SLMO2 / Fold change vs veh, SLMO2 / RFU, ABCC4 / Fold change vs veh, ABCC4 / RFU, LOC101060439 /// RAP1B / Fold change vs veh, LOC101060439 /// RAP1B / RFU, RFX7 / Fold change vs veh, RFX7 / RFU, GTPBP10 / Fold change vs veh, GTPBP10 / RFU, CNEP1R1 / Fold change vs veh, CNEP1R1 / RFU, BIVM-ERCC5 /// ERCC5 / Fold change vs veh, BIVM-ERCC5 /// ERCC5 / RFU, ILF3 / Fold change vs veh, ILF3 / RFU 11762660_at / Fold change /veh 11762660_at / RFU VCAN (11757783_s_at) / Fold change /veh VCAN (11757783_s_at) / RFU DDX43 (11728927_at) / Fold change /veh DDX43 (11728927_at) / RFU KRT8 (11758188_x_at) / Fold change /veh KRT8 (11758188_x_at) / RFU NKD1 (11759106_at) / Fold change /veh NKD1 (11759106_at) / RFU SRD5A1 (11742802_a_at) / Fold change /veh SRD5A1 (11742802_a_at) / RFU TPSAB1 /// TPSB2 (11721975_s_at) / Fold change /veh TPSAB1 /// TPSB2 (11721975_s_at) / RFU GSTM3 (11746129_a_at) / Fold change /veh GSTM3 (11746129_a_at) / RFU IL23R (11737362_x_at) / Fold change /veh IL23R (11737362_x_at) / RFU TMEM51 (11727254_a_at) / Fold change /veh TMEM51 (11727254_a_at) / RFU PIWIL2 (11732686_x_at) / Fold change /veh PIWIL2 (11732686_x_at) / RFU ORM1 (11744905_x_at) / Fold change /veh ORM1 (11744905_x_at) / RFU CCDC152 (11743942_at) / Fold change /veh CCDC152 (11743942_at) / RFU ECM1 (11717891_a_at) / Fold change /veh ECM1 (11717891_a_at) / RFU IL23R (11748794_a_at) / Fold change /veh IL23R (11748794_a_at) / RFU TNFAIP8L3 (11732012_x_at) / Fold change /veh TNFAIP8L3 (11732012_x_at) / RFU MBOAT4 (11741988_at) / Fold change /veh MBOAT4 (11741988_at) / RFU 11764193_at / Fold change /veh 11764193_at / RFU TMEM53 (11763286_at) / Fold change /veh TMEM53 (11763286_at) / RFU MAGEB2 (11727129_at) / Fold change /veh MAGEB2 (11727129_at) / RFU TMEM200A (11744735_a_at) / Fold change /veh TMEM200A (11744735_a_at) / RFU CCDC152 (11751479_a_at) / Fold change /veh CCDC152 (11751479_a_at) / RFU FAM211A (11726209_a_at) / Fold change /veh FAM211A (11726209_a_at) / RFU RGS16 (11746705_a_at) / Fold change /veh RGS16 (11746705_a_at) / RFU VCAN (11755009_s_at) / Fold change /veh VCAN (11755009_s_at) / RFU RHOB (11743442_s_at) / Fold change /veh RHOB (11743442_s_at) / RFU RGS16 (11720943_a_at) / Fold change /veh RGS16 (11720943_a_at) / RFU RGS16 (11720944_at) / Fold change /veh RGS16 (11720944_at) / RFU, VPS4B / Fold change vs veh, VPS4B / RFU, CREB1 / Fold change vs veh, CREB1 / RFU, DNAJC13 / Fold change vs veh, DNAJC13 / RFU, GNAQ / Fold change vs veh, GNAQ / RFU, CDK5R1 / Fold change vs veh, CDK5R1 / RFU, ZRANB3 / Fold change vs veh, ZRANB3 / RFU, CUL4A / Fold change vs veh, CUL4A / RFU, CCNY / Fold change vs veh, CCNY / RFU, UFL1 / Fold change vs veh, UFL1 / RFU, COG3 / Fold change vs veh, COG3 / RFU, DIAPH2 / Fold change vs veh, DIAPH2 / RFU, SKA2 / Fold change vs veh, SKA2 / RFU, AFF3 / Fold change vs veh, AFF3 / RFU, LMF1 / Fold change vs veh, LMF1 / RFU, IPO11 / Fold change vs veh, IPO11 / RFU, DFFB / Fold change vs veh, DFFB / RFU, FOXP1 / Fold change vs veh, FOXP1 / RFU, CARD8 / Fold change vs veh, CARD8 / RFU, STRN3 / Fold change vs veh, STRN3 / RFU, ADK / Fold change vs veh, ADK / RFU, RASSF2 / Fold change vs veh, RASSF2 / RFU, WIPF1 / Fold change vs veh, WIPF1 / RFU, LARP1B / Fold change vs veh, LARP1B / RFU, RASA1 / Fold change vs veh, RASA1 / RFU, RB1 / Fold change vs veh, RB1 / RFU, PPFIA1 / Fold change vs veh, PPFIA1 / RFU, MAT2A / Fold change vs veh, MAT2A / RFU, CCT5 / Fold change vs veh, CCT5 / RFU, WDR92 / Fold change vs veh, WDR92 / RFU, CUX1 / Fold change vs veh, CUX1 / RFU, TTC7A / Fold change vs veh, TTC7A / RFU, TMEM135 / Fold change vs veh, TMEM135 / RFU, DEPTOR / Fold change vs veh, DEPTOR / RFU, CPM / Fold change vs veh, CPM / RFU, DNAJB6 / Fold change vs veh, DNAJB6 / RFU, CACNA2D3 / Fold change vs veh, CACNA2D3 / RFU, DTX4 / Fold change vs veh, DTX4 / RFU, TFCP2 / Fold change vs veh, TFCP2 / RFU, GMCL1 /// GMCL1P1 / Fold change vs veh, GMCL1 /// GMCL1P1 / RFU, AEBP2 / Fold change vs veh, AEBP2 / RFU, SNHG1 /// SNORD22 /// SNORD25 /// SNORD26 /// SNORD27 /// SNORD28 /// SNORD29 /// SNORD31 / Fold change vs veh, SNHG1 /// SNORD22 /// SNORD25 /// SNORD26 /// SNORD27 /// SNORD28 /// SNORD29 /// SNORD31 / Fold change (Aza/veh), C12orf56 (ProbeSet 11735607_a_at) / Fold change (ACY-1035/veh), C12orf56 (ProbeSet 11735607_a_at) / Fold change (Aza/veh), FGFR1OP (ProbeSet 11751329_s_at) / Fold change (ACY-1035/veh), FGFR1OP (ProbeSet 11751329_s_at) / Fold change (Aza/veh), VPS36 (ProbeSet 11739960_a_at) / Fold change (ACY-1035/veh), VPS36 (ProbeSet 11739960_a_at) / RFU SYPL1 (11715823_x_at) / Fold change /veh SYPL1 (11715823_x_at) / RFU IGFBP7 (11715501_s_at) / Fold change /veh IGFBP7 (11715501_s_at) / RFU REEP3 (11722064_at) / Fold change /veh REEP3 (11722064_at) / RFU IGLL1 (11728026_x_at) / Fold change /veh IGLL1 (11728026_x_at): dose or concentration left out as unconfirmed. Conditions: ProbeSet 11753623_s_at; LIST D.

Molecules are shown by their SMILES.

For `Nc1ncn([C@@H]2O[C@H](CO)[C@@H](O)[C@H]2O)c(=O)n1` [azacitidine], the “RFU, LOC101060439 /// RAP1B” value was 283.36 RFU.

Values taken from PMC5218480 (PLoS ONE, 2017).
